Data from BindingDB's records for doi:10.1124/jpet.102.047092 (Case Western Reserve University, 2003).

Columns and labels:
[1] = biological target: T1, Alpha-1B adrenergic receptor (Homo sapiens, UniProt P35368)
T1 sequence (P35368 whole entry): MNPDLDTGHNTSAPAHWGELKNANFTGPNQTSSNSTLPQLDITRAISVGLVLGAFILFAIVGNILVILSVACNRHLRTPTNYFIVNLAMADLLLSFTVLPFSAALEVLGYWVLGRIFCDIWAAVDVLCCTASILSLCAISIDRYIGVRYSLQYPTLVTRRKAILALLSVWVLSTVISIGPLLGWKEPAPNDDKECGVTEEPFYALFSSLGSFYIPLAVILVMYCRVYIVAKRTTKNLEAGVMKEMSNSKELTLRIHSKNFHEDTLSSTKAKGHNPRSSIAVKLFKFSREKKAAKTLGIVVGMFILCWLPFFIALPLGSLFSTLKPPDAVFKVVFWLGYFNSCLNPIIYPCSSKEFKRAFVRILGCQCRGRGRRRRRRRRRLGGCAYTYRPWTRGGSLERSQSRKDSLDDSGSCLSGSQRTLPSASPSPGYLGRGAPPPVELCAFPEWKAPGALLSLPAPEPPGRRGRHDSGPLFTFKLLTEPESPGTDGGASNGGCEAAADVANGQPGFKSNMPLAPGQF

[2] = biological target: T2, Muscarinic acetylcholine receptor M4 (Homo sapiens, UniProt P08173)
T2 sequence (P08173 whole entry): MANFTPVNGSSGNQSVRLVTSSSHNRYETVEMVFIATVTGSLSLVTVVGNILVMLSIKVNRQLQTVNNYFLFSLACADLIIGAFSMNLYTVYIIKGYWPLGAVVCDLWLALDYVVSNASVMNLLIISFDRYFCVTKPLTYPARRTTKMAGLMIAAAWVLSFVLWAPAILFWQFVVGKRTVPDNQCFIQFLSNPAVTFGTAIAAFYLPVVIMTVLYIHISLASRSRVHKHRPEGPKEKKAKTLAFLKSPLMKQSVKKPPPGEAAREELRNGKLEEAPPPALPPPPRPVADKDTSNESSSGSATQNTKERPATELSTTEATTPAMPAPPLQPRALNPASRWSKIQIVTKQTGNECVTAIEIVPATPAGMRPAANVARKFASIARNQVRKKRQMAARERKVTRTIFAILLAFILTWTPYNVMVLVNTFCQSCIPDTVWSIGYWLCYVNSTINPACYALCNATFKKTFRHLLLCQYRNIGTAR

[3] = biological target: Sodium-dependent serotonin transporter (Homo sapiens, UniProt P31645)
Chain of Sodium-dependent serotonin transporter (P31645 whole entry): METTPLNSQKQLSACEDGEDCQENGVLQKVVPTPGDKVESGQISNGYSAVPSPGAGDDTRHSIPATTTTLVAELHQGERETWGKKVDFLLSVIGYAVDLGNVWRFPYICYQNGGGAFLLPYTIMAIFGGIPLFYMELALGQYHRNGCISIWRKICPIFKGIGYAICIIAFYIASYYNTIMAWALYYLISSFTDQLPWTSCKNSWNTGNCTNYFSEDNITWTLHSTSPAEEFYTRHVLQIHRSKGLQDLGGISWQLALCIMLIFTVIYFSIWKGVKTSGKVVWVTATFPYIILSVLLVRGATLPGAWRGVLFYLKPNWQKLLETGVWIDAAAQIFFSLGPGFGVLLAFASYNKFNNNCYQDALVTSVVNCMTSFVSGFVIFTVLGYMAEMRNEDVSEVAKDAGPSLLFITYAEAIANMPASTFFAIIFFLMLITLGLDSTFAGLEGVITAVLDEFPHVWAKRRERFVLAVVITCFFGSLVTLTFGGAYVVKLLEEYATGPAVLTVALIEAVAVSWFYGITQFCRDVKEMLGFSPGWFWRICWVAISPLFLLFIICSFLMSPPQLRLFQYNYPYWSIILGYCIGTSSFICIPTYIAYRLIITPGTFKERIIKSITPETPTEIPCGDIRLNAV

Cannabinoid receptor 1 = Cannabinoid receptor 1 (Rattus norvegicus, UniProt P20272)
Chain of Cannabinoid receptor 1 (P20272 whole entry): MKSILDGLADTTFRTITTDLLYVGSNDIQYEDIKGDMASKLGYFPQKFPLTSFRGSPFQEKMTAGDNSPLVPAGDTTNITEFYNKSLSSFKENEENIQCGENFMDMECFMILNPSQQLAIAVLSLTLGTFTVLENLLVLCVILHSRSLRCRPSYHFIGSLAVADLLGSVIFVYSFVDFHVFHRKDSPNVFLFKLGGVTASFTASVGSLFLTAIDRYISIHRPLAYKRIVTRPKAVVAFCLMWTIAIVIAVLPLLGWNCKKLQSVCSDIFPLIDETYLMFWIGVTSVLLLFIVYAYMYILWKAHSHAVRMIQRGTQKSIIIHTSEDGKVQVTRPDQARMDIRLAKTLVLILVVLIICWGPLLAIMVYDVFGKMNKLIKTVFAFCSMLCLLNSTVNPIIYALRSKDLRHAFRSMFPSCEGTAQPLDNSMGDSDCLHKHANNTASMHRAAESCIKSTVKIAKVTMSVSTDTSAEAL

[4] = biological target: Sodium-dependent noradrenaline transporter (Homo sapiens, UniProt P23975)
D(4) dopamine receptor = biological target: T3, D(4) dopamine receptor (Rattus norvegicus, UniProt P30729)
T3 sequence (P30729 whole entry): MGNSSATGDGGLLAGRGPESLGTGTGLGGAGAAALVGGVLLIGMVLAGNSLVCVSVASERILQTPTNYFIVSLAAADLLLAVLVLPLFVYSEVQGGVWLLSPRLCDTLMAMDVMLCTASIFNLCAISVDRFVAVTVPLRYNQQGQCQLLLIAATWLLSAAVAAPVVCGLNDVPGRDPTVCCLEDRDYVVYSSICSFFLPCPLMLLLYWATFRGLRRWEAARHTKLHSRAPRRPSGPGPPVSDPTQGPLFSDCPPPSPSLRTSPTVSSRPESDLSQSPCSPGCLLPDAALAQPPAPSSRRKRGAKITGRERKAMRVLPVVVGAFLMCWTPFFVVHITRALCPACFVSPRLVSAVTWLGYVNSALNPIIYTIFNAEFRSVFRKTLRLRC

Histamine H2 receptor = Histamine H2 receptor (Homo sapiens, UniProt P25021)
Chain of Histamine H2 receptor (P25021 whole entry): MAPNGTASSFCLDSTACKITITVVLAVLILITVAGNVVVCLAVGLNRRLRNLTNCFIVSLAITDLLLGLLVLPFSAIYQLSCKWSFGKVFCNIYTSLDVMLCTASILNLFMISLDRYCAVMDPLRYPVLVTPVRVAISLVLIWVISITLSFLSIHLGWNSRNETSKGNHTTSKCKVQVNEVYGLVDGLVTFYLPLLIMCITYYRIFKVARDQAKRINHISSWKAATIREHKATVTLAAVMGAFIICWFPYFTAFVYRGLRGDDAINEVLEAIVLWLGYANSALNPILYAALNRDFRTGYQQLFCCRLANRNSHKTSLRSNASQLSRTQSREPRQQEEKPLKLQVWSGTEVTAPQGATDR

[5] = biological target: 5-hydroxytryptamine receptor 1D (Homo sapiens, UniProt P28221)
Chain of 5-hydroxytryptamine receptor 1D (P28221 whole entry): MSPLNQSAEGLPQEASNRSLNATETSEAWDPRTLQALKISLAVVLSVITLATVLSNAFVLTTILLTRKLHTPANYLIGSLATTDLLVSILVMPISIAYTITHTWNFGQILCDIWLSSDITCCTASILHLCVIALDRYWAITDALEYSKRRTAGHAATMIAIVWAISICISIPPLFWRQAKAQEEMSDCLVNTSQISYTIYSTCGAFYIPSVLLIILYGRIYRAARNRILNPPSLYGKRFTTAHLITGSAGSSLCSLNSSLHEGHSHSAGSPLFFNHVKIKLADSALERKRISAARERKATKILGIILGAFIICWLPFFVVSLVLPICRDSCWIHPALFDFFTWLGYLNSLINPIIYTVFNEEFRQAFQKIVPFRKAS

[6] = biological target: 5-hydroxytryptamine receptor 6 (Homo sapiens, UniProt P50406)
[7] = biological target: 5-hydroxytryptamine receptor 7 (Homo sapiens, UniProt P34969)
[8] = biological target: 5-hydroxytryptamine receptor 2A (Rattus norvegicus, UniProt P14842)
Chain of 5-hydroxytryptamine receptor 2A (P14842 whole entry): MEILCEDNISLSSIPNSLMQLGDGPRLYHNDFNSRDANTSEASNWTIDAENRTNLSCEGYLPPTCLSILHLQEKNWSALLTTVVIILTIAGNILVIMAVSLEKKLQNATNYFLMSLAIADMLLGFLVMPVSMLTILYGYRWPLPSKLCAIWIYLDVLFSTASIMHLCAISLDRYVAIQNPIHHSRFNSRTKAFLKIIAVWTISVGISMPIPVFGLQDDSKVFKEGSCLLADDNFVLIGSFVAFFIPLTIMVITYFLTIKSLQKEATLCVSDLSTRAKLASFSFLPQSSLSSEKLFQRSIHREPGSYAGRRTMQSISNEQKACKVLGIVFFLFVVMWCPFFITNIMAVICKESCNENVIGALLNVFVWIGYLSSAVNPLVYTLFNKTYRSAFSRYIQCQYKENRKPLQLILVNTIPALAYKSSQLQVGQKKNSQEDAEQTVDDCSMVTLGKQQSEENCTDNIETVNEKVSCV

[9] = biological target: T4, Alpha-2B adrenergic receptor (Homo sapiens, UniProt P18089)
T4 sequence (P18089 whole entry): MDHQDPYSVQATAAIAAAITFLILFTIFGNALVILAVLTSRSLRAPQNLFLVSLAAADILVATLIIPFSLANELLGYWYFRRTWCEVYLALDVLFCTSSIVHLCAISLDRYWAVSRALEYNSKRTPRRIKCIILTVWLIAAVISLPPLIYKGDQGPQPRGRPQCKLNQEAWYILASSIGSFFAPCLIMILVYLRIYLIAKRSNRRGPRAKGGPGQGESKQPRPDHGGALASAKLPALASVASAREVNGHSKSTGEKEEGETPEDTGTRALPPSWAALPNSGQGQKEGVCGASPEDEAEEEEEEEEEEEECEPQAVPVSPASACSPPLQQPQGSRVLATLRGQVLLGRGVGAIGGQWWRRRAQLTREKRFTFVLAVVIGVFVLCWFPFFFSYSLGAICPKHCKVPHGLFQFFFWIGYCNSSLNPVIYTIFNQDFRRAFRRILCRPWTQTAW

[10] = biological target: Neuronal acetylcholine receptor subunit alpha-3 (Homo sapiens, UniProt P32297)
Chain of Neuronal acetylcholine receptor subunit alpha-3 (P32297 whole entry): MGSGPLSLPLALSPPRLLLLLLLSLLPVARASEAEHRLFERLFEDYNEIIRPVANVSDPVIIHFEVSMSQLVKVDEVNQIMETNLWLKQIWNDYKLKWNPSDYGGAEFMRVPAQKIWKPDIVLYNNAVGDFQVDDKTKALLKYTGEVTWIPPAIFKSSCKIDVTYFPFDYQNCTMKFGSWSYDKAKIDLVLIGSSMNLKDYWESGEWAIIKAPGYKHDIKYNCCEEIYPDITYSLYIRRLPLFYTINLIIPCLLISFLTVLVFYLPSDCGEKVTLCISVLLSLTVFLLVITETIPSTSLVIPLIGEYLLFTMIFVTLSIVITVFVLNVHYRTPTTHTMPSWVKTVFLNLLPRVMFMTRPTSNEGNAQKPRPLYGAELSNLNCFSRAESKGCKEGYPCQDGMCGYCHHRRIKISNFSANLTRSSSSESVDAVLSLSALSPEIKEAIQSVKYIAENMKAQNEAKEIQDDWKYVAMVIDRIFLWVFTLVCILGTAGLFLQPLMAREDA

Histamine H1 receptor = Histamine H1 receptor (Rattus norvegicus, UniProt P31390)
[11] = biological target: Voltage-dependent L-type calcium channel subunit alpha-1C (Rattus norvegicus, UniProt P22002)
Chain of Voltage-dependent L-type calcium channel subunit alpha-1C (P22002 whole entry): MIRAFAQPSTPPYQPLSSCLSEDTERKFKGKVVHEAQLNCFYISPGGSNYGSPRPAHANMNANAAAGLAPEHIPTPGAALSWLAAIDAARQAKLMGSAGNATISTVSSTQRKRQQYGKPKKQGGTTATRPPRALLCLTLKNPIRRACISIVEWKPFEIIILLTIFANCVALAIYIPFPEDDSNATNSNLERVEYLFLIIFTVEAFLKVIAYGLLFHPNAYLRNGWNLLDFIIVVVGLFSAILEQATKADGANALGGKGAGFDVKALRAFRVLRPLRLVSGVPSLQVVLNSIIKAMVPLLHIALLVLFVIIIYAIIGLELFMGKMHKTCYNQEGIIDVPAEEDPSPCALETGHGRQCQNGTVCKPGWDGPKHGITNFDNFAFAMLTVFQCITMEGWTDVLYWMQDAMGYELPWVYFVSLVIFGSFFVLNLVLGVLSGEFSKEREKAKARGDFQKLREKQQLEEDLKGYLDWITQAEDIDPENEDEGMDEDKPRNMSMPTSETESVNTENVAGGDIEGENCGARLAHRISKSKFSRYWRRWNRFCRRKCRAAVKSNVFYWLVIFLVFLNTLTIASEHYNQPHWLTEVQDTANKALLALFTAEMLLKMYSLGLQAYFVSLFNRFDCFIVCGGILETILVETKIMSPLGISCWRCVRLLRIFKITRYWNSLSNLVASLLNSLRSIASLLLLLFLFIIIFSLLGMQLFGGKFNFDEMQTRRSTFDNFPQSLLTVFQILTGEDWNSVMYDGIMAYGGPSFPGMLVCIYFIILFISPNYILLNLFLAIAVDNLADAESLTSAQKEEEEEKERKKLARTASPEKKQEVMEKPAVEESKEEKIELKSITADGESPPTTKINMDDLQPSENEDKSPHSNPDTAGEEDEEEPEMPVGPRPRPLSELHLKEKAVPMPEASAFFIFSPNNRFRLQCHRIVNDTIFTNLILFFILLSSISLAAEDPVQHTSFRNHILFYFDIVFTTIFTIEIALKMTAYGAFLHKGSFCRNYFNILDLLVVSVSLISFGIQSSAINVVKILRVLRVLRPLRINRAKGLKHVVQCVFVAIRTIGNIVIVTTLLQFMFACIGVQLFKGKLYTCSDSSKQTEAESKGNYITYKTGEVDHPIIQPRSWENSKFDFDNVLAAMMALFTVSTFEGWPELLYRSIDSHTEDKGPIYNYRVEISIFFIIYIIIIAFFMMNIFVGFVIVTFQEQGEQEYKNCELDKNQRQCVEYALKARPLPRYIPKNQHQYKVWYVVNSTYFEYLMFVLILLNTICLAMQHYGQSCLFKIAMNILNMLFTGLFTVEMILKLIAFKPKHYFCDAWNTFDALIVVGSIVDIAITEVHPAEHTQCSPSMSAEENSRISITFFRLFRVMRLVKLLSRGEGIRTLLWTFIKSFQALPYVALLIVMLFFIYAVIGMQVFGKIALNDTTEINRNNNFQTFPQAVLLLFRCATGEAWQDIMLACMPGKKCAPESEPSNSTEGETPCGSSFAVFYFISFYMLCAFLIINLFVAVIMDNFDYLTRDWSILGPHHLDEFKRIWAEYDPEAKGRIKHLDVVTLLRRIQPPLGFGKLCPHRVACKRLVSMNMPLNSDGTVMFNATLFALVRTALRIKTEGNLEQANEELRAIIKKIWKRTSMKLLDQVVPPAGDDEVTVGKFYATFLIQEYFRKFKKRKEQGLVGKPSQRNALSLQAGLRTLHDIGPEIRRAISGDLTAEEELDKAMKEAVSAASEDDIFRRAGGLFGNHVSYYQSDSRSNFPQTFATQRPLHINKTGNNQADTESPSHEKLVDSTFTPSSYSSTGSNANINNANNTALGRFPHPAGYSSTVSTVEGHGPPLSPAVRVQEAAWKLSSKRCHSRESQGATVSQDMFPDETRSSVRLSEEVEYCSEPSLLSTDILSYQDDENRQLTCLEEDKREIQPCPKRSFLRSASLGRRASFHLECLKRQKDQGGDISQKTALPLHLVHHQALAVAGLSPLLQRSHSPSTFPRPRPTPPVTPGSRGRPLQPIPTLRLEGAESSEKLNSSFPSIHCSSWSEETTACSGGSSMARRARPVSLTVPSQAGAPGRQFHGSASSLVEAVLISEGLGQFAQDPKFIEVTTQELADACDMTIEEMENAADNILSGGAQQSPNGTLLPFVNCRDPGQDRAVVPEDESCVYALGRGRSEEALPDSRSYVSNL

Histamine H4 receptor = Histamine H4 receptor (Homo sapiens, UniProt Q9H3N8)

Measured: Ki

CSCC[C@@H](N)C(=O)O [CAS_6137]
> 10 µM: all assays above

N[C@H](CCS(=O)(=O)O)C(=O)O [D-homocysteic acid]
> 10 µM: all assays above

N[C@H](CCS(=O)O)C(=O)O [D-homocysteine sulfinic acid]
> 10 µM: all assays above
